Assay results published in US20140288043A1, “PYRAZOLOPYRIDINE COMPOUNDS” (Genentech, Inc., priority 2013, published 2014).

target: LRRK2 (Homo sapiens, UniProt Q5S007); experiment: LRRK2 protein kinase assay ([γ-33P] ATP, peptide substrate), KI values of Table 1; type: biochemical; details: LRRK2 affinity values
Description: All LRRK2 protein kinases were of human origin and were sourced from Invitrogen Corporation (Carlsbad, Calif. 92008 USA) unless otherwise indicated. The active mutant used was recombinant human, catalytic domain (amino acids 970-2527) containing a G2019S mutation, GST-tagged, expressed in insect cells (Invitrogen Cat#PV4881). The wild type used was recombinant human, catalytic domain (amino acids 970-2527) GST-tagged, expressed in insect cells (Invitrogen Cat#PV4873). The kinase dead mutant used was recombinant human, catalytic domain (amino acids 970-2527) containing a D1994A mutation, GST-tagged, expressed in insect cells (Invitrogen Cat#PM4041AE). No special measures were taken to activate any of the kinases.
All assays were carried out at room temperature (˜21° C.) and were linear with respect to time and enzyme concentration under the conditions used. Assays were performed for 180 min in a 96 well format. LRRK2 was present at a concentration of approximately 5 nM. The enzyme was diluted and assayed in 50 mM Tris-HCl pH7.5, 0.1 mM EGTA, 1 mM DTT and 10 mM MgCl2. The concentration of magnesium chloride in the assay was 10 mM. The [γ-33P] ATP (0.4 μCi/well) was used at 134 uM for G2019S mutant and at 57 μM for the wild type kinase in order to be at Km. The peptide substrate in the assay was […] at 100 μM.
The assays were initiated with Mg/ATP and stopped by the addition of 25 μl/well 50% orthophosphoric acid. Reactions were harvested onto Whatman P81 Unifilter Plates (Fisher Scientific. Loughborough, LE115RG, UK. Cat# FDU-105-020U) using a Tomtec harvester. (Tomtec Hamden, Conn. 06514. USA) Plates were counted using a Perkin Elmer Top Count NX7. (Perkin Elmer, Shelton Conn. 06484-4794 USA)
IC50 values of inhibitors were determined after carrying out assays at 10 different concentrations of each compound in duplicate.

Sequence of LRRK2 (Q5S007 whole entry G2019S, form open, the tested form may be a part): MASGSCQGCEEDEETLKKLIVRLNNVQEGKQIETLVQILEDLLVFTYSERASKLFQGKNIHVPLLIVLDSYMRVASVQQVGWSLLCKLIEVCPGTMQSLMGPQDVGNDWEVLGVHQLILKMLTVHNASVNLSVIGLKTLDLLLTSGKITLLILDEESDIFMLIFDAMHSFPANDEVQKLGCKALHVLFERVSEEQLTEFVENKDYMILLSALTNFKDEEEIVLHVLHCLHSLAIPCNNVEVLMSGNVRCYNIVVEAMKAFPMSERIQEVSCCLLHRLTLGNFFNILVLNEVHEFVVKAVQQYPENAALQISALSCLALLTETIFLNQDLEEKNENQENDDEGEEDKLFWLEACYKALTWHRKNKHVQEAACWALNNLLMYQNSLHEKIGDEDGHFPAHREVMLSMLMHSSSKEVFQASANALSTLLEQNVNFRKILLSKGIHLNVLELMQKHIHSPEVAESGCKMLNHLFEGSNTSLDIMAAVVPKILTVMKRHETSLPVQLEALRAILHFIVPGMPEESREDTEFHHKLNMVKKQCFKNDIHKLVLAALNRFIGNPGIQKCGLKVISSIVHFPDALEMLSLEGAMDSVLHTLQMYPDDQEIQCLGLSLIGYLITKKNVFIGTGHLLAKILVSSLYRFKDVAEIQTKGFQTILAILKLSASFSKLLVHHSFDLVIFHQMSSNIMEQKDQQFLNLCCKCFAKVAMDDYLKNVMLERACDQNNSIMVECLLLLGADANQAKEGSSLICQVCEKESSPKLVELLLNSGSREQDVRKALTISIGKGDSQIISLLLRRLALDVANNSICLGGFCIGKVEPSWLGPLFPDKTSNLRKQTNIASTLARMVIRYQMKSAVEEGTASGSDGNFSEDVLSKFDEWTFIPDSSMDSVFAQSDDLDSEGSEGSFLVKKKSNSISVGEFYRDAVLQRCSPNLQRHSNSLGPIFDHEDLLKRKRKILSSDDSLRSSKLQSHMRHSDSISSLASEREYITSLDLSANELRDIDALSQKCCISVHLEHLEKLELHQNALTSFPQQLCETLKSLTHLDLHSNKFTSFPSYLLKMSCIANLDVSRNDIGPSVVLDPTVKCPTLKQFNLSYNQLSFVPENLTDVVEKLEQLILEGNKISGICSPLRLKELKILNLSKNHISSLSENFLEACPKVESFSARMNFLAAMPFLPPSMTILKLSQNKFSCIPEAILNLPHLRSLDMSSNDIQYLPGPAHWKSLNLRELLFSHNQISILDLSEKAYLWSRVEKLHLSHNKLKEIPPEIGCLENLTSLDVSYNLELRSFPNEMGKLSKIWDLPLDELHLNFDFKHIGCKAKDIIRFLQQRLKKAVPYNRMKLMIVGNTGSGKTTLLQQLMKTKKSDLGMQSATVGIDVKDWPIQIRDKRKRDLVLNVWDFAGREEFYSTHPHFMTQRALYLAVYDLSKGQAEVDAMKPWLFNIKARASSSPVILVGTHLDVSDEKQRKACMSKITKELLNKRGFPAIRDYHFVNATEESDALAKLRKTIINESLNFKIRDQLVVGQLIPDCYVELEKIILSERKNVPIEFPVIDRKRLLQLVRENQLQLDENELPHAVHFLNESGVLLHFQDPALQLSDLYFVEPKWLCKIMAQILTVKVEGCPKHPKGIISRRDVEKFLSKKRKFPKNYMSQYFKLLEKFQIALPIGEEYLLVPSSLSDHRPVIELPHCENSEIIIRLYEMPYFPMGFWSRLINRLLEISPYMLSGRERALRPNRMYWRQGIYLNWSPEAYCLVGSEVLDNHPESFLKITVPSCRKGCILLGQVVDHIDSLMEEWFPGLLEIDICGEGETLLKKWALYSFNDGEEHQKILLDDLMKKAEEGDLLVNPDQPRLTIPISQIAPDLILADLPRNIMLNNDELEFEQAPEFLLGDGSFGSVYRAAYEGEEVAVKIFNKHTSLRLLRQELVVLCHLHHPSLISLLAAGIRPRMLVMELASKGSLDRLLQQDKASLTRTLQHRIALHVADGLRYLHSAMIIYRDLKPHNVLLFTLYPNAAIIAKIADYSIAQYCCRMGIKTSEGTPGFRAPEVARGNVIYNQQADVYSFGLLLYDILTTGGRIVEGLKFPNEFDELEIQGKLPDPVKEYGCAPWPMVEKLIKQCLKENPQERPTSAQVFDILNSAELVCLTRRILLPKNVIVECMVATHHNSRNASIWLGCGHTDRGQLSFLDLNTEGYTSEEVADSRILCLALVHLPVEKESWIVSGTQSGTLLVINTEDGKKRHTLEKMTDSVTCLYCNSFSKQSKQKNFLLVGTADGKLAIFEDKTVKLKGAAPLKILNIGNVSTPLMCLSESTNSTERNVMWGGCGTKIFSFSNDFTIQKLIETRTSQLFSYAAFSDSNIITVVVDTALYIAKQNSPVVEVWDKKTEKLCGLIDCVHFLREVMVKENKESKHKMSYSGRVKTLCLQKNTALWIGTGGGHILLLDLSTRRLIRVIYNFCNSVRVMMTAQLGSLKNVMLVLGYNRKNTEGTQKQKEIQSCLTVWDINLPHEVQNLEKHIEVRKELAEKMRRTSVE

Ki [nM]	Structure (SMILES)
46.9	CC(C)Nc1nccc2[nH]nc(-c3cc(C(=O)N(C)C)ccn3)c12 [Compound 55, 2-(4-(isopropylamino)-1H-pyrazolo[4,3-c]pyridin-3-yl)-N,N-dimethylisonicotinamide]
6.4	FC1(F)CCC(Nc2nccc3[nH]nc(-c4ccccn4)c23)CC1 [Compound 34, N-(4,4-difluorocyclohexyl)-3-(pyridin-2-yl)-1H-pyrazolo[4,3-c]pyridin-4-amine]
6	CC(C)Nc1nccc2[nH]nc(-c3cc(S(C)(=O)=O)ccn3)c12 [Compound 72, N-isopropyl-3-(4-(methylsulfonyl)pyridin-2-yl)-1H-pyrazolo[4,3-c]pyridin-4-amine]

Further lines, the compound ahead of its results:

Structure (SMILES)	Ki [nM]
CCNc1nccc2[nH]nc(-c3cn(CCOC)nn3)c12 [Compound 14, N-ethyl-3-(1-(2-methoxyethyl)-1H-1,2,3-triazol-4-yl)-1H-pyrazolo[4,3-c]pyridin-4-amine]	22.5
FC(F)(F)c1cc(-c2n[nH]c3ccnc(NC(C4CC4)C4CC4)c23)ncn1 [Compound 73, N-(dicyclopropylmethyl)-3-(6-(trifluoro-methyl)pyrimidin-4-yl)-1H-pyrazolo[4,3-c]pyridin-4-amine]	2.5
